From patent publication US20080214671A1, “Dicarbonic Acid Derivatives, Metastasis Inhibitors and Agents Increasing Chemotherapeutic Activity of Anti-Tumor Preparations, Method for Enhancing the Cytostatic Efficiency and Metastasis Process Inhibiting Method” (priority 2005, published 2008)

What was measured:
Format in all cases: in vivo
Lewis lung carcinoma = Lewis lung carcinoma in BDF1 mice, metastasis inhibition in the lungs
Experimental: (§1) An experimental study of the anti-tumor activity of the FB-13 preparation as a chemosensitizer was carried out on tumor models of P388 leukemia and Lewis metastatic lung carcinoma, which can be seen in Examples 5 and 6.
Lewis lung carcinoma was subcutaneously inoculated to hybrid mice BDF1. The inoculum was 5×10^6 tumor cells. The combined effect of FB-13 and cisplatin was investigated. The index of metastasis inhibition (IMI in %) in the lungs served as the assessment criterion. When cisplatin was administered alone, IMI was 50%, in combined administration with FB-13, it was 100% (FIG. 2).

B-16 melanoma = B-16 melanoma in BDF1 mice, metastasis inhibition in the lungs
Experimental: Experimental B-16 melanoma was subcutaneously engrafted to hybrid mice BDF1. The inoculum was 5×10^6 tumor cells. The combined effect of FB-13 and cisplatin was investigated. The index of metastasis inhibition (IMI in %) in the lungs served as the assessment criterion. When cisplatin was administered alone, IMI was 52%, in combined administration with FB-13, it was 100%. Similar studies were carried out with hydroxamic acids based on oxalic acid (the compound L215) and based on tartaric acid (the compound L221). Tests for acute toxicity were carried out in the group of experimental oncology of the IPKhF of the RAS by intraperitoneal administration of the preparations in water to BDF1 mice. […] The use of these compounds at the minimum doses in combination with the minimum doses of cytostatics (when neither of the preparations taken alone provides a therapeutic effect) makes complete inhibition of the metastasis process in experimental B-16 melanoma or Lewis lung carcinoma possible. Furthermore, the use of dicarbonic acid oxyamides as agents for enhancing the anti-tumor effect makes it possible in a combination with the minimum amounts of oxyamide and a cytostatic (a unit dose of cytostatics being 4 times lower than a therapeutic dose) to enhance the efficacy in the treatment of P-388 leukemia (survival rate of the animals is 100%).

Leukemia P388 = assay: P388 leukemia in BDF1 mice, combined therapy with cytostatic
Experimental: as §1
Leukemia P388 was intraperitoneally inoculated to hybrid mice BDF1. The inoculum was 10^6 leukemic cells in 0.2 ml normal saline. The preparation was administered at a dose 10 mg/kg, cisplatin—at a dose 2 mg/kg on days 1, 3, 5 and 7 post transplantation. The number of cured (surviving for 60 days) animals served as an assessment criterion.
Similar studies were carried out with the preparation FB-14 (50 mg/kg) and cyclophosphane (60 mg/kg).
Furthermore, a significant increase in the average life span (ILS) of the animals as compared to the control group is shown in FIG. 4b.

[1] = combined administration of FB-13 with cisplatin
[2] = cisplatin administered alone, s.c. inoculum 5x10^6 cells

| SMILES | index of metastasis inhibition (IMI) in the lungs (Lewis lung carcinoma; [1]) | index of metastasis inhibition (IMI) in the lungs (B-16 melanoma; [1]) | number of cured (surviving for 60 days) animals (Leukemia P388; combined administration: FB-13 10 mg/kg and cisplatin 2 mg/kg on days 1, 3, 5 and 7) | index of metastasis inhibition (IMI) in the lungs (Lewis lung carcinoma; [2]) | index of metastasis inhibition (IMI) in the lungs (B-16 melanoma; [2]) | number of cured (surviving for 60 days) animals (Leukemia P388; only cisplatin, 2 mg/kg on days 1, 3, 5 and 7 post transplantation, i.p. inoculum 10^6 cells) |
| --- | --- | --- | --- | --- | --- | --- |
| NC(=O)C(N)=O.O=C(O)/C=C\C(=O)O [FB-13, Maleic acid monooxamide] | 100% | 100% | 100% | – | – | – |
| N.N.[Cl][Pt][Cl] [cisplatin] | – | – | – | 50% | 52% | 66.7% |
